# Entries after “also recorded” stand apart in the source; their conditions may differ. Like-named read-outs stand apart in the source and are kept apart here. Where no end group is shown, it is not given here.
# Experiments:
# [1] = system: internal maxillary artery; assay: Arterial blood pressure and nasal arterial blood flow in anaesthetised dogs after i.v. peptide; format: in vivo; settings: dog, 8 nmol kg^-1 i.v.
# Protocol: Experiments were performed on twelve adult mixed breed dogs of both sexes weighing between 4 and 9 kg. These experiments were approved by the institutional animal care and ethics committee. The dogs were anaesthetised with pentobarbitone sodium (35 mg kg^-1 i.v.). The trachea was cannulated low in the neck and the animals were artifically ventilated. A catheter connected to a Statham P23AC blood pressure transducer was placed in a femoral artery for systemic blood pressure monitoring. Another catheter was inserted in a femoral vein for administration of compounds and further doses of anaesthetic as required (0.5-1 ml of a 1-in-5 dilution of pentobarbitone). The left cervical vagus nerve was dissected high in the neck, the vagal sheath was removed and then the sympathetic nerve was separated from the vagal trunk. […] Bipolar platinum electrodes connected to a Grass S 88 stimulator (Grass Instruments, Quincy, USA) were used for stimulation of the proximal portion of the cervical sympathetic nerve and the cut peripheral end of the parasympathetic nerve. The identification of cervical sympathetic nerve was confirmed by observing dilation of the pupil with its electrical stimulation. The left external carotid artery was disserted up to the internal maxillary artery. […] The superficial temporal artery was cannulated for selective injection of agents into the main nasal arterial blood supply. The nasal arterial blood flow was recorded with a transonic flow probe (3SB454) placed around the internal maxillary artery and connected to a T206 ultrasonic blood flowmeter (Transonic System Inc., N.Y., U.S.A.). All parameters were continuously recorded on a Grass polygraph model 7C in all experiments. The animals were allowed a one hour intervention-free period following completion of surgery.
# Group 1 (n+8): Solutions of ACh (5.5×10^-11 to 5.5×10^-8 mol). VIP (3×10^-11 to 3×10^-9 mol), PH1 (3.3×10^-11 to 1.6×10^-8 mol) and NA (6×10^-11 mol to 6×10^-8 mol) in 1 ml of saline, were infused into the superficial temporal artery over a period of 15 sec. […]
# [2] = system: dog nasal mucosa; assay: Parasympathetic nerve-evoked nasal vasodilatation in anaesthetised dogs; format: in vivo; settings: for parasympathetic vasodilatation after administration, in words: i.v.
# [3] = system: internal maxillary artery; assay: Local intra arterial injection, vascular resistance in the internal maxillary artery (Rma); format: in vivo; settings: dog; for effect on Rma, in words / rank order potency on a molar basis (reduction of Rma): local intra arterial injection; for vascular effect after pretreatment with adrenoceptor blockers and atropine: phentolamine, propranolol and atropine pretreatment
# Protocol: Experiments were performed on twelve adult mixed breed dogs of both sexes weighing between 4 and 9 kg. These experiments were approved by the institutional animal care and ethics committee. The dogs were anaesthetised with pentobarbitone sodium (35 mg kg^-1 i.v.). The trachea was cannulated low in the neck and the animals were artifically ventilated. A catheter connected to a […] blood pressure transducer was placed in a femoral artery for systemic blood pressure monitoring. Another catheter was inserted in a femoral vein for administration of compounds and further doses of anaesthetic as required (0.5-1 ml of a 1-in-5 dilution of pentobarbitone). The left cervical vagus nerve was dissected high in the neck, the vagal sheath was removed and then the sympathetic nerve was separated from the vagal trunk. […] The left zygomatic arch was removed and the […] the sphenopalatine ganglion were exposed by a procedure similar to the one described by […] & Wilson (1973). Bipolar platinum electrodes connected to a Grass S 88 stimulator (Grass Instruments, Quincy, USA) were used for stimulation of the proximal portion of the cervical sympathetic nerve and the cut peripheral end of the parasympathetic nerve. The identification of cervical sympathetic nerve was confirmed by observing dilation of the pupil with its electrical stimulation. The left external carotid artery was […] up to the internal maxillary artery. The main arterial branches located beyond to the superficial temporal artery were ligated as described previously by Lacroix et al. (1988), a procedure which leaves the internal maxillary artery flow supplying only the nasal mucosa. The superficial temporal artery was cannulated for selective injection of agents into the main nasal arterial blood supply. The nasal arterial blood flow was recorded with a transonic flow probe (3SB454) placed around the internal maxillary artery and connected to a T206 ultrasonic blood flowmeter (Transonic System Inc., N.Y., U.S.A.). All parameters were continuously recorded on a Grass polygraph model 7C in all experiments. The animals were allowed a one hour intervention-free period following completion of surgery. Group 1 (n+8): […] The administration of saline alone had no measurable effect. An interval of 5 min was allowed between successive injections. Fifteen minutes after the completion of the ACh, VIP, PH1 and NA injections, parasympathetic nerve stimulations (5 V, 5 ms) were performed at continuous frequencies of 10, 20 and 30 Hz, each for 10 sec. Each stimulation was performed 3 min after the blood flow in the internal maxillary artery returned to base line from the preceding stimulation. Sympathetic nerve stimulation (15 V, 5 ms) was then performed continuously at 10 Hz for 3 min. Parasympathetic nerve stimulations were repeated five minutes, thirty minutes and then one hour after sympathetic nerve stimulation. This entire protocol was repeated after pretreatment with the α-adrenoceptor antagonist phentolamine (0.5 mg kg^-1 h^-1), the β-adrenoceptor antagonist propranolol (1 mg kg^-1) and the parasympathetic muscarinic receptor blocker atropine (0.5 mg kg^-1), all delivered by local intra arterial (i.a.) injection. […] Analysis of results: changes of the nasal arterial blood flow were expressed in terms of vascular resistance in the maxillary artery (Rma), obtained by dividing the driving mean arterial blood pressure in the femoral artery by the peak value of the blood flow volume rate in the maxillary artery. Before each experiment a zero flow in the maxillary artery was obtained by clamping the artery upstream to the transonic probe for 30 sec. The duration of the responses were given in second sand calculated from the end of the electrical stimulation until return to former basal values. All data are presented as mean ± standard error of the […]. Statistical differences were evaluated using one way ANOVA test.
# [4] = system: endogenous ATP receptor; assay: Calcium response to ATP in Y1 receptor-transfected CHO cells; format: cell-based, Chinese Hamster; settings: 1 μM ATP
# Protocol: Cells were suspended in loading media (Modified RPMI, 10 mM Hepes, 1% newborn fetal calf serum) and incubated in a spinner flask at 37° C., for 2.5 hours at 1×10^6 cells/ml. Cells were then treated with […] Fura-2 AM for 30 minutes at 37° C., washed twice with loading media and resuspended at 5×10^6 cells/ml. Immediately before use in fluorescence spectroscopy, cells were recovered by centrifugation at 1000 rpm and resuspended at 1×10^6 cells/ml in a modified Krebs buffer (135 mM NaCl, 4.7 mM KCl; 1.2 /nM MgSO4, 1.2 mM KH2 PO4, 5 mM NaHCO3, 1 mM CaCl2, 2.8 mM glucose, and 10 mM Hepes, pH 7.4) containing 1 mM sulphinpyrazone. Fluorescence recordings were made on an Hitachi fluorescence spectrometer (F4010) at 340 nm (excitation) and 505 nm (emission) over 10 minutes with slit widths of 5 nm and a response time of 2 seconds. Intracellular calcium levels were quantitated using equations described (Grynkiewicz et al., 1985).
# [5] = molecular target: T1, neuropeptide Y Y2 receptor (Homo sapiens, UniProt P49146); assay: Competition with radiolabelled peptide YY for binding to SMS-KAN cells
# T1 construct: endogenous in cells; host or cells: SMS-KAN human neuroblastoma cells (whole cells; gift of Dr Thue Schwartz)
# T1 sequence (P49146 1-381): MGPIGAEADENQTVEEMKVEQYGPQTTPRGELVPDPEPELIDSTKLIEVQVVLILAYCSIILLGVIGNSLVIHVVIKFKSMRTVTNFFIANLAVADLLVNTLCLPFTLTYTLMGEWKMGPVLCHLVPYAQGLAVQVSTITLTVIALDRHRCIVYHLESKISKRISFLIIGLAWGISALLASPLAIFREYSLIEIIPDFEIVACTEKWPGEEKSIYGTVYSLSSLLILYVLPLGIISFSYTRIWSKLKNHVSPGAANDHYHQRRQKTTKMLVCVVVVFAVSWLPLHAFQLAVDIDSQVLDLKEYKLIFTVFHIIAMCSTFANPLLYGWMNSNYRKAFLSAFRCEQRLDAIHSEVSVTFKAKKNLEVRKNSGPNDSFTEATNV
# Description: (§1) All media and materials for tissue culture were obtained from Cytosystems (Castle Hill, NSW, Australia). Cells were harvested by treatment with 0.2% EDTA in phosphate buffered saline and immediately used in the binding assay described.
# [6] = molecular target: T2, prejunctional (neuropeptide Y Y2) receptor (Rattus norvegicus, UniProt Q9ERC0); assay: Inhibition of cardiac vagal action in anaesthetised rats (prejunctional activity); format: in vivo; settings: for EC50 / inhibition of cardiac vagal action (prejunctional effect), in words: anaesthetised rats, i.v.; for EC50: log of the dose which evokes 50% of the maximum response, mean ± SEM, five rats
# T2 construct: from tissue; host or cells: whole anaesthetised Wistar rat (cardiac vagal nerve endings)
# T2 sequence (Q9ERC0 1-381): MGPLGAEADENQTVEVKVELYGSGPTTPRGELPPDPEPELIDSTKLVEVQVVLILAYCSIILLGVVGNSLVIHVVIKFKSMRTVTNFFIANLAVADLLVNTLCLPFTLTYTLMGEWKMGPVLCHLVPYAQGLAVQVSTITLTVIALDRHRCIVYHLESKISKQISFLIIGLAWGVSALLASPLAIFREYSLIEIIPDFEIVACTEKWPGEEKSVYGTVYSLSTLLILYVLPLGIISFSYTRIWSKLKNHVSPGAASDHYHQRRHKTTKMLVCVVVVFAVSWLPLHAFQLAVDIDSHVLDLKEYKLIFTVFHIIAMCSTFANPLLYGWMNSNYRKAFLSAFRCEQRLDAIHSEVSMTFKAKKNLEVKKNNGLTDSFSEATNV
# Protocol: Experiments were carried out on adult rats (Wistar) of both sexes (250-350 g), anaesthetised with sodium pentobarbitone (Nembutal, Boehringer-Ingleheim; 60 mg/kg, i.p.). […] The femoral vein was cannulated for administration of peptides and further doses of anaesthetic. The left femoral artery was cannulated to record arterial pressure. Both vagus nerves were cut. […] The electrocardiogram was measured using needle electrodes and monitored on one channel of an osciloscope. Pulse interval (the period between successive beats of the heart) was recorded beat-by-beat by triggering from ECG. Pulse interval and arterial pressure were recorded on the pen recorder.
# Dose-response curves were constructed from group data for all rats. Because of the long time-course of action of the peptides tested, not all peptides were given to each rat.
# [7] = molecular target: T2, prejunctional (neuropeptide Y Y2) receptor; settings: Potter et al., 1989; cited from earlier work
# [8] = molecular target: T3, neuropeptide Y Y1 receptor (Homo sapiens, UniProt P25929); assay: Competition with radiolabelled peptide YY for binding to SK-N-MC cells
# T3 construct: host or cells: SK-N-MC human neuroblastoma cells (whole cells)
# T3 sequence (P25929 1-384): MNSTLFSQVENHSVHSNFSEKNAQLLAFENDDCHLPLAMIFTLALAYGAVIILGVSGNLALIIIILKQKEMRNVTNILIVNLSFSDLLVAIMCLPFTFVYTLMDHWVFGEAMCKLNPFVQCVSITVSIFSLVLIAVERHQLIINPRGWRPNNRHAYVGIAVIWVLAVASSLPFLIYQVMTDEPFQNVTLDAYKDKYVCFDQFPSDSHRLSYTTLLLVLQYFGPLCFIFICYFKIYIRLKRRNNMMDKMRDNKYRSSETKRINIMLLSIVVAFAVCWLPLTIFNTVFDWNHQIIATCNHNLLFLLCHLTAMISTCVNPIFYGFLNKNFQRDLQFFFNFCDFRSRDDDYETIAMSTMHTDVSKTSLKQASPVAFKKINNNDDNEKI
# Description: as §1
# [9] = molecular target: T4, postjunctional (neuropeptide Y Y1) receptor (Rattus norvegicus, UniProt P21555); assay: Pressor action (arterial blood pressure) in anaesthetised rats (postjunctional activity); format: in vivo; settings: i.v.
# T4 construct: from tissue; host or cells: whole anaesthetised Wistar rat (vasculature)
# T4 sequence (P21555 1-382): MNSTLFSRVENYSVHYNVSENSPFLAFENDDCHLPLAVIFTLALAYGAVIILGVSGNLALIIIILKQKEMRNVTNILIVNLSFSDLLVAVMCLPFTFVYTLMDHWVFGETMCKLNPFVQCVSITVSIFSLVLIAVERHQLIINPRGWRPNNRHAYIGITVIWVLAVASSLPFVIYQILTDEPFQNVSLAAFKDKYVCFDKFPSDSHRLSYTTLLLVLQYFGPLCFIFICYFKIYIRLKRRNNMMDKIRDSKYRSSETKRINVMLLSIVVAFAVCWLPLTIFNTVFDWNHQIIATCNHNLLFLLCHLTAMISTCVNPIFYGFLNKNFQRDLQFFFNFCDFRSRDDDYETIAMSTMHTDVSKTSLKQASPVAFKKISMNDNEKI
# Protocol: Experiments were carried out on adult rats (Wistar) of both sexes (250-350 g), anaesthetised with sodium pentobarbitone (Nembutal, Boehringer-Ingleheim; 60 mg/kg, i.p.). The trachea was cannulated and the animal artifically ventilated. The femoral vein was cannulated for administration of peptides and further doses of anaesthetic. The left femoral artery was cannulated to record arterial pressure. Both vagus nerves were cut. […] The frequency was chosen to increase pulse interval by approximately 100 ms, a submaximal effect on this variable. The electrocardiogram was measured using needle electrodes and monitored on one channel of an osciloscope. Pulse interval (the period between successive beats of the heart) was recorded beat-by-beat by triggering from ECG. Pulse interval and arterial pressure were recorded on the pen recorder. […]
# As an indication of prejunctional activity two parameters were measured; the maximum percent inhibition of the increase in pulse interval evoked by stimulation of the vagus nerve following injection of peptide (Δ pulse interval, % inhibition) and the time to half recovery of this effect (T50). For pressor action, an indicator of postjunctional activity, two parameters were also measured; the peak pressor response following injection of peptide (Δ blood pressure) and the duration of the increase in blood pressure (Duration). […]
molecule,measurement,setting,value
"[Leu^31, Pro^34 ] neuropeptide Y [[Leu^31, Pro^34] NPY]",duration of the blood pressure increase,[1],more than 7 min
same,reduction of blood flow in the internal maxillary artery (nasal mucosa blood flow),[1],~20%
same,increase in arterial blood pressure,"[1]; after phentolamine, propranolol and atropine",23±2.8 mmHg
same,"parasympathetic vasodilatation after administration, in words","[2]; Y1 agonist 8 nmol kg^-1, Y2 agonist 20 nmol kg^-1",no influence on the parasympathetic nerve-evoked vasodilatation; also recorded: no influence on the subsequent parasympathetic vasodilatation
same,"parasympathetic vasodilatation after administration, in words","[2]; Y1 agonist 8 nmol kg^-1, Y2 agonist 20 nmol kg^-1, Pro^31 ] NPY",not modified
vasoactive intestinal polypeptide [VIP],"effect on Rma, in words",[3],dose-dependant reductions of the Rma
same,rank order potency on a molar basis (reduction of Rma),[3],ACh>VIP>PHI
same,vascular effect after pretreatment with adrenoceptor blockers and atropine,[3],remained intact
Nc1ncnc2c1ncn2[C@@H]1O[C@H](COP(=O)(O)OP(=O)(O)OP(=O)(O)O)[C@@H](O)[C@H]1O [ATP],"calcium response to ATP after addition of N-acetyl [Leu28, Leu31] neuropeptide Y-(24-36)",[4],33.8 nM
same,"calcium response to ATP before addition of N-acetyl [Leu28, Leu31] neuropeptide Y-(24-36)",[4],46.3 nM
"Ac-LRHYLNLLTRQRY-NH2 [N-acetyl [Leu^28, Leu^31] neuropeptide Y-(24-36)]",IC50,[5],3.9 ± 0.4 nM
same,EC50,[6]; read-out: EC50 for T50 (time to half recovery of vagal inhibition) (converted),2.51 nM
same,EC50,[6]; read-out: EC50 for Δ pulse interval (converted),3.16 nM
neuropeptide Y-(13-32),"prejunctional activity in vivo, earlier study",[7],inactive in vivo
"LRHYLNLLTRQRY-NH2 [[Leu^28, Leu^31] neuropeptide Y-(24-36)]","binding to Y1 receptor on SK-N-MC cells, in words",[8],"neither N-acetyl [Leu^28, Leu^31 ] neuropeptide Y-(24-36) or [Leu^28, Leu^31 ] neuropeptide Y-(24-36) shoed significant binding"
same,"pressor effect (Δ blood pressure), in words",[9],did not significantly increase blood pressure at any dose tested
same,IC50,[5],12.7 ± 1.2 nM
same,duration of transient response (T50),"[6]; Table 1 footnote, no EC50 calculated",< 2 min
same,"inhibition of cardiac vagal action (prejunctional effect), in words",[6],significant inhibitory or prejunctional actions but these effects are transient
same,"inhibition of cardiac vagal action (prejunctional effect), in words","[6]; listed as [Leu^27, Leu^31 ] neuropeptide Y-(24-36)",significant inhibitory effects on cardiac vagal action
NC[C@H](O)c1ccc(O)c(O)c1 [NA],"effect on Rma, in words",[3],dose-dependant increases in Rma
same,vascular effect after pretreatment with adrenoceptor blockers and atropine,[3],virtually abolished
"CC(=O)OCC[N+](C)(C)C.[Cl-] [ACh, acetylcholine chloride]","effect on Rma, in words",[3],dose-dependant reductions of the Rma
same,rank order potency on a molar basis (reduction of Rma),[3],ACh>VIP>PHI
same,vascular effect after pretreatment with adrenoceptor blockers and atropine,[3],virtually abolished
peptide histidine isoleucine [PHI],"effect on Rma, in words",[3],dose-dependant reductions of the Rma
same,rank order potency on a molar basis (reduction of Rma),[3],ACh>VIP>PHI
same,vascular effect after pretreatment with adrenoceptor blockers and atropine,[3],remained intact
C[N+](C)(C)CC[N+]1(C)Cc2c(Cl)c(Cl)c(Cl)c(Cl)c2C1 [chlorisondamine],vasodilatation evoked by vidian nerve stimulation after ganglion blocker,"[2]; 2 mg kg^-1, i.v.",inhibition of vasodilatation
